Converted amounts (≈) assume the structure as drawn.
Columns and labels:
Experiment in all cases: ≥ marks a high value that may be exact or a test limit, other limits are often not marked, values filed in µg/mL are converted to µM
[1] = tested on: Proteus vulgaris MTCC 1771
[2] = tested on: Salmonella enterica subsp. enterica serovar Typhimurium ATCC 14028
[3] = tested on: Acinetobacter baumannii MTCC 9829
[4] = tested on: Haemophilus influenzae MTCC 621
[5] = tested on: Salmonella enterica MTCC 9844
[6] = tested on: Proteus mirabilis MTCC 3158
[7] = tested on: Klebsiella oxytoca MTCC 2275
[8] = tested on: Staphylococcus haemolyticus MTCC 3383
[9] = tested on: Shigella flexneri MTCC 1457
[10] = tested on: Stenotrophomonas maltophilia MTCC 1890
[11] = tested on: Staphylococcus aureus MTCC 3160
[12] = tested on: Alcaligenes faecalis MTCC 1937
[13] = tested on: Alkalihalobacillus alcalophilus MTCC 860
[14] = tested on: Klebsiella aerogenes MTCC 111
[15] = tested on: Citrobacter koseri MTCC 1657
[16] = tested on: Shigella boydii MTCC 11947
[17] = tested on: Corynebacterium glutamicum MTCC 2679
[18] = tested on: Enterococcus faecalis MTCC 439
[19] = tested on: Vibrio cholerae MTCC 3904
[20] = tested on: Pluralibacter gergoviae MTCC 3826
[21] = tested on: Klebsiella pneumoniae MTCC 7407
[22] = tested on: Escherichia coli K12 MG1655
[23] = tested on: Pseudomonas aeruginosa MTCC 3542
[24] = tested on: Bordetella bronchiseptica MTCC 6837
[25] = tested on: Citrobacter freundii MTCC 1658
[26] = tested on: Klebsiella pneumoniae ATCC BAA-1705
Escherichia coli W3110 = tested on: Escherichia coli W3110
[27] = tested on: Streptococcus sanguinis NY101
[28] = tested on: Pseudomonas aeruginosa PAK
[29] = tested on: Streptococcus mutans UA159
Staphylococcus aureus = tested on: Staphylococcus aureus
Enterococcus faecalis = tested on: Enterococcus faecalis
Salmonella sp. = tested on: Salmonella sp.

CC[C@H](C)[C@H](NC(=O)[C@H](CCCCN)NC(=O)[C@H](CCCCN)NC(=O)[C@H](C)NC(=O)[C@H](CCCCN)NC(=O)[C@H](CO)NC(=O)[C@H](CCCN=C(N)N)NC(=O)[C@H](Cc1c[nH]c2ccccc12)NC(=O)[C@H](CCCCN)NC(=O)[C@H](CCCCN)NC(=O)[C@H](Cc1c[nH]c2ccccc12)NC(=O)[C@H](CCCN=C(N)N)NC(=O)[C@H](CCCCN)NC(=O)[C@@H](N)Cc1ccc(O)cc1)C(=O)N[C@@H](CC(C)C)C(=O)O [YKRWKKWRSKAKKIL]
MIC [1]: 31.7 µM (≈ 64 µg/mL)
MIC [2]: 15.8 µM (≈ 32 µg/mL)
MIC [3]: 7.92 µM (≈ 16 µg/mL)
MIC [4]: 15.8 µM (≈ 32 µg/mL)
MIC [5]: 7.92 µM (≈ 16 µg/mL)
MIC [6]: ≥ 63.4 µM
MIC [7]: 15.8 µM (≈ 32 µg/mL)
MIC [8]: 1.98 µM (≈ 4 µg/mL)
MIC [9]: 3.96 µM (≈ 8 µg/mL)
MIC [10]: ≥ 63.4 µM
MIC [11]: ≥ 63.4 µM
MIC [12]: ≥ 63.4 µM
MIC [13]: 31.7 µM (≈ 64 µg/mL)
MIC [14]: ≥ 63.4 µM
MIC [15]: 7.92 µM (≈ 16 µg/mL)
MIC [16]: 3.96 µM (≈ 8 µg/mL)
MIC [17]: 0.99 µM (≈ 2 µg/mL)
MIC [18]: ≥ 63.4 µM
MIC [19]: ≥ 63.4 µM
MIC [20]: ≥ 63.4 µM
MIC [21]: ≥ 63.4 µM
MIC [22]: 1.98 µM (≈ 4 µg/mL)
MIC [23]: ≥ 63.4 µM
MIC [24]: 3.96 µM (≈ 8 µg/mL)
MIC [25]: ≥ 63.4 µM

CC(C)C[C@H](NC(=O)CNC(=O)[C@H](CC(C)C)NC(=O)[C@H](CCCCN)NC(=O)[C@H](C)NC(=O)[C@H](Cc1c[nH]c2ccccc12)NC(=O)[C@H](Cc1c[nH]c2ccccc12)NC(=O)[C@@H](N)Cc1c[nH]c2ccccc12)C(=O)N[C@@H](CCCCN)C(=O)N[C@@H](CC(C)C)C(=O)N[C@@H](CC(C)C)C(=O)N[C@@H](CCCN=C(N)N)C(=O)N[C@@H](Cc1ccc(O)cc1)C(=O)N[C@@H](CCCN=C(N)N)C(=O)N[C@@H](CCCN=C(N)N)C(=O)N[C@@H](Cc1c[nH]c2ccccc12)C(=O)N[C@@H](Cc1ccc(O)cc1)C(=O)O [WWWAKLGLKLLRYRRWY]
MIC [26]: 8 µM (≈ 19.2 µg/mL)
MIC (Escherichia coli W3110): 4 µM (≈ 9.58 µg/mL)

CC(C)C[C@H](NC(=O)[C@H](Cc1cnc[nH]1)NC(=O)[C@H](Cc1ccccc1)NC(=O)[C@H](Cc1cnc[nH]1)NC(=O)[C@@H](N)Cc1ccccc1)C(=O)N[C@@H](Cc1cnc[nH]1)C(=O)N[C@@H](Cc1ccccc1)C(N)=O [FHFHLHF]
MIC [27]: 16.3 µM (≈ 16 µg/mL)
MIC [28]: 16.3 µM (≈ 16 µg/mL)
MIC [29]: 8.13 µM (≈ 7.99 µg/mL)
MIC (Escherichia coli W3110): 8.13 µM (≈ 7.99 µg/mL)
MIC (Staphylococcus aureus): 32.5 µM (≈ 32 µg/mL)
MIC (Enterococcus faecalis): 16.3 µM (≈ 16 µg/mL)

CC(C)C[C@H](NC(=O)[C@H](CCCCN)NC(=O)[C@H](CC(C)C)NC(=O)[C@@H](N)CC(C)C)C(=O)N[C@@H](Cc1ccccc1)C(=O)N[C@@H](Cc1ccccc1)C(=O)N1CCC[C@H]1C(=O)N[C@@H](Cc1ccccc1)C(=O)N[C@@H](CC(C)C)C(=O)N[C@@H](CCC(=O)O)C(=O)N[C@H](C(=O)NCC(=O)N[C@@H](CCC(=O)O)C(=O)O)[C@@H](C)O [LLKLFFPFLETGE]
MIC (Salmonella sp.): ≥ 256 µM

CC[C@H](C)[C@H](NC(=O)[C@H](C)NC(=O)[C@H](CC(C)C)NC(=O)[C@H](C)NC(=O)[C@H](CC(C)C)NC(=O)[C@H](CCCCN)NC(=O)[C@H](CC(C)C)NC(=O)[C@H](C)NC(=O)[C@H](CO)NC(=O)[C@H](C)NC(=O)[C@H](CC(C)C)NC(=O)[C@H](CC(C)C)NC(=O)[C@H](CCCCN)NC(=O)[C@H](CCCCN)NC(=O)[C@H](C)NC(=O)[C@@H](NC(=O)[C@@H](N)CCC(=O)O)C(C)C)C(=O)O [EVAKKLLASALKLALAI]
MIC [1]: ≥ 73.1 µM
MIC [2]: > 73.1 µM
MIC [3]: ≥ 73.1 µM
MIC [4]: ≥ 36.5 µM
MIC [5]: ≥ 73.1 µM
MIC [6]: ≥ 73.1 µM
MIC [7]: ≥ 73.1 µM
MIC [8]: ≥ 73.1 µM
MIC [9]: ≥ 73.1 µM
MIC [10]: ≥ 73.1 µM
MIC [11]: ≥ 73.1 µM
MIC [12]: ≥ 73.1 µM
MIC [13]: ≥ 73.1 µM
MIC [14]: ≥ 73.1 µM
MIC [15]: ≥ 73.1 µM
MIC [16]: ≥ 73.1 µM
MIC [17]: 18.3 µM (≈ 32 µg/mL)
MIC [18]: ≥ 73.1 µM
MIC [19]: ≥ 73.1 µM
MIC [20]: ≥ 73.1 µM
MIC [21]: ≥ 73.1 µM
MIC [22]: ≥ 73.1 µM
MIC [23]: ≥ 73.1 µM
MIC [24]: 9.13 µM (≈ 16 µg/mL)
MIC [25]: ≥ 73.1 µM

CC[C@H](C)[C@H](NC(=O)[C@H](C)N)C(=O)N[C@H](C(=O)N[C@@H](CCC(=O)O)C(=O)N[C@@H](CCC(N)=O)C(=O)N[C@@H](CC(C)C)C(=O)N[C@@H](CCCN=C(N)N)C(=O)N[C@@H](CCCCN)C(=O)N[C@@H](CCCN=C(N)N)C(=O)N[C@@H](CS)C(=O)O)C(C)C [AIVEQLRKRC]
MIC [1]: ≥ 105 µM
MIC [2]: > 105 µM
MIC [3]: ≥ 105 µM
MIC [4]: ≥ 105 µM
MIC [5]: ≥ 105 µM
MIC [6]: ≥ 105 µM
MIC [7]: ≥ 105 µM
MIC [8]: ≥ 105 µM
MIC [9]: ≥ 105 µM
MIC [10]: ≥ 105 µM
MIC [11]: ≥ 105 µM
MIC [12]: ≥ 105 µM
MIC [13]: ≥ 105 µM
MIC [14]: ≥ 105 µM
MIC [15]: ≥ 105 µM
MIC [16]: ≥ 105 µM
MIC [17]: ≥ 105 µM
MIC [18]: ≥ 105 µM
MIC [19]: ≥ 105 µM
MIC [20]: ≥ 105 µM
MIC [21]: ≥ 105 µM
MIC [22]: ≥ 105 µM
MIC [23]: ≥ 105 µM
MIC [24]: ≥ 105 µM
MIC [25]: ≥ 105 µM

CC[C@H](C)[C@H](N)C(=O)N[C@@H](Cc1c[nH]c2ccccc12)C(=O)N[C@@H](Cc1c[nH]c2ccccc12)C(=O)N[C@@H](C)C(=O)N[C@@H](CCCCN)C(=O)N[C@@H](Cc1c[nH]c2ccccc12)C(=O)NCC(=O)N[C@@H](CC(C)C)C(=O)N[C@@H](CCCCN)C(=O)N[C@@H](CC(C)C)C(=O)N[C@@H](CC(C)C)C(=O)N[C@@H](CCCN=C(N)N)C(=O)N[C@@H](Cc1ccc(O)cc1)C(=O)N[C@@H](CCCN=C(N)N)C(=O)N[C@@H](CCCN=C(N)N)C(=O)N[C@H](C(=O)N[C@@H](Cc1ccc(O)cc1)C(=O)O)[C@@H](C)CC [IWWAKWGLKLLRYRRIY]
MIC [26]: 8 µM (≈ 18.6 µg/mL)
MIC (Escherichia coli W3110): 1 µM (≈ 2.32 µg/mL)
